In patent US12102658B2, “Tripeptide propylene oxide derivative and preparation method and application thereof” (SHENZHEN JIKANG PHARMACEUTICAL TECHNOLOGY CO., LTD, priority 2019, dated 2024):
Read-outs that look alike come from different tables or passages of the source.

Tests used:
U266B1 = assay: Cell strain inhibition activity (Promega single solution cell proliferation test kit), U266; format: cell-based; settings: Homo sapiens, U-266; U266B1 cells, 24 h incubation with drug; read-out: IC50 concentration (nM) of the drugs to cytotoxicity, U266B1
Procedure: (§1) The test solution used in the present invention is a single solution cell proliferation test kit from Promega company; and the cells used are U266 and RPMI8226. The experimental system is 110 μL, containing 90 μL of cell suspension, 10 μL of test solution, and 10 μL of drug (inhibitor). The final concentration is 4.54×10^−8 M-1.77×10^−9 M, the last concentration is 0 M, the actual preparation concentration is 5×10^−7 M-1.95×10^−8 M, and the last concentration is 0 M. The specific experiment process is as follows:
(§2) After the cells are counted separately, dilution and preparation are performed so that the number of U266 is 1×10^4 cells/well, and the number of RPMI8226 is 1×10^4 cells/well.
(§3) 90 μL of cell suspension is added to each well of a 96-well fluorescence microplate, and incubated for 24 h. […] After the reaction is complete, 10 μL of test solution is added to each well and incubation is performed for 2-3 h. The absorbance is tested with a 490 nm fluorescence microplate reader (BMG LABTECH POLARstar OPTIMA Microplate Reader).
(§4) The absorbances of the products obtained under the action of the drugs of different concentrations after subtracting the substrate are calculated. The IC50 concentration (nM) of the drugs to cytotoxicity is calculated by the GraphPad Prism software.

[1] = target: T1, human red blood cell 20S proteasome (Homo sapiens, UniProt P28074); assay: Proteasome inhibition activity (chymotrypsin-like activity, Suc-LLVY-AMC fluorescent substrate); format: biochemical; settings: Suc-LLVY-AMC 50 μM, 37° C.
T1 construct: human red blood cell 20S proteasome; purchased Enzo; host or cells: purified from human red blood cells
Procedure: The present invention uses a fluorescent polypeptide substrate Suc-Leu-Leu-Val-Tyr-AMC (abbreviated as Suc-LLVY-AMC, Suc stands for succinyl group, AMC stands for 7-amide-4-methylcoumarin) to determine the chymotrypsin-like enzyme activity of the proteasome.
The proteasome used in the present invention is human red blood cell 20S proteasome, and the enzymes, fluorescent substrates and test buffers are all purchased from Enzo company. […]
The 20S proteasome is diluted with a buffer solution to a concentration of 2 ng/μL from 8 ng/μL, and the diluted proteasome solution is added to a 384-well fluorescence microplate, 4 μL each. […] A 360 nm/460 nm fluorescence microplate reader (BMG LABTECH POLARstar OPTIMA Microplate Reader) is used to test the fluorescence value.
The fluorescence values of the products obtained under the action of the drugs of different concentrations after subtracting the substrate are calculated. The IC50 concentration of the drug to inhibit the proteasome is calculated by the GraphPad Prism software.

RPMI8226 = assay: Cell strain inhibition activity (Promega single solution cell proliferation test kit), RPMI8226; format: cell-based; settings: Homo sapiens, RPMI-8226; RPMI8226 cells, 24 h incubation with drug; read-out: IC50 concentration (nM) of the drugs to cytotoxicity, RPMI8226
Procedure: as §1, §2, §3, §4

[2] = Primary cytotoxicity, monocytes from healthy volunteers; format: cell-based; settings: human, primary blood monocytes from a healthy volunteer, 24 h incubation with drug
Procedure: (§5) In the present invention, blood cells from patients with multiple myeloma and blood cells from healthy volunteers are used to test the toxicity of candidate compounds. The test solution is a single solution cell proliferation test kit from Promega company. The cells used are CD138+ cells selected from the patients with multiple myeloma and monocytes from the blood of the healthy volunteers. The experimental system is 110 μL, containing 90 μL of cell suspension, 10 μL of test solution, and 10 μL of drug (inhibitor). The final concentration is 4.54×10^−8 M 1.77×10^−9 M, the last concentration is 0 M, the actual preparation concentration is 5×10^−7 M-1.95×10^−8 M, and the last concentration is 0 M. The specific experiment process is as follows:
(§6) After the cells are counted separately, dilution and preparation are performed so that the number of CD138+ cells is 1×10^4 cells/well, and the number of monocytes is 1×10^4 cells/well.
as §3, §4

[3] = test system: CD138+ cells selected from the patients with multiple myeloma; assay: Primary cytotoxicity, CD138+ cells from patients with multiple myeloma; format: cell-based; settings: Homo sapiens
Procedure: as §5, §6, §3, §4

[4] = Healthy volunteer 3 (first line, r4), read-out: IC50 concentration (nM) of the drugs to cytotoxicity, Healthy volunteer 3
[5] = Healthy volunteer 3 (second line, r5), read-out: IC50 concentration (nM) of the drugs to cytotoxicity, Healthy volunteer 3 (second line)
[6] = Patient 1, 24 h incubation with drug, read-out: IC50 concentration (nM) of the drugs to cytotoxicity, Patient 1
[7] = Patient 2, 24 h incubation with drug, read-out: IC50 concentration (nM) of the drugs to cytotoxicity, Patient 2

| SMILES | melting point | also measured |
| --- | --- | --- |
| COC[C@H](NC(=O)[C@@H](CSC)NC(=O)c1cc(Cl)ccc1Cl)C(=O)N[C@@H](CC(C)C)C(=O)[C@@]1(C)CO1 [Compound 36, N-2,5-dichlorophenyl-2-formyl-S-methyl-L-cysteinyl-O-methyl-L-seryl-L-leucyl-methyloxirane] | 59.8 to 60.3 °C | – |
| COC[C@H](NC(=O)[C@@H](CSC)NC(=O)c1cc(C)on1)C(=O)N[C@@H](CC(C)C)C(=O)[C@@]1(C)CO1 [Compound 37, N-5-methylisoxazolyl-3-formyl-S-methyl-L-cysteinyl-O-methyl-L-seryl-L-leucyl-methyloxirane] | 49.5 to 51.8 °C | – |
| COC[C@H](NC(=O)[C@@H](CSC)NC(=O)c1cnccn1)C(=O)N[C@@H](CC(C)C)C(=O)[C@@]1(C)CO1 [Compound 38, N-pyrazinyl-2-formyl-S-methyl-L-cysteinyl-O-methyl-L-seryl-L-leucyl-methyloxirane] | 59.6 to 61.2 °C | IC50 [1]: > 2000 nM |
| COC[C@H](NC(=O)[C@@H](CSC)NC(=O)c1cc(Cl)ccc1Cl)C(=O)N[C@@H](Cc1ccccc1)C(=O)[C@@]1(C)CO1 [Compound 39, N-2,5-dichlorophenyl-2-formyl-S-methyl-L-cysteinyl-O-methyl-L-seryl-L-phenylalanyl-methyloxirane] | 51.2 to 52.7 °C | – |
| CSC[C@@H](NC(=O)c1cnccn1)C(=O)N[C@H](CSC)C(=O)N[C@@H](Cc1ccccc1)C(=O)[C@@]1(C)CO1 [Compound 48, N-pyrazinyl-2-formyl-S-methyl-L-cysteinyl-S-methyl-L-cysteinyl-L-phenylalanyl-methyloxirane] | – | IC50 [1]: > 2000 nM |
| CSC[C@@H](NC(=O)c1cnc(C)s1)C(=O)N[C@H](CSC)C(=O)N[C@@H](Cc1ccccc1)C(=O)[C@@]1(C)CO1 [Compound 49, N-2-methylthiazolyl-5-formyl-S-methyl-L-cysteinyl-S-methyl-L-cysteinyl-L-phenylalanyl-methyloxirane] | 73 to 74 °C | – |
| COC[C@H](NC(=O)c1cc(C)on1)C(=O)NCC(=O)N[C@@H](Cc1ccccc1)C(=O)[C@@]1(C)CO1 [Compound 51, N-5-methylisoxazolyl-3-formyl-O-methyl-L-seryl-glycyl-L-phenylalanyl-methyloxirane] | 54 to 55 °C | IC50 [3, 6]: 36 nM; IC50 [3, 7]: 52.6 nM |
| COC[C@H](NC(=O)CNC(=O)c1cc(C)on1)C(=O)N[C@@H](CC(C)C)C(=O)[C@@]1(C)CO1 [Compound 52, N-5-methylisoxazolyl-3-formyl-glycyl-O-methyl-L-seryl-L-leucyl-methyloxirane] | – | IC50 (RPMI8226): > 100 nM |
| CSC[C@@H](NC(=O)c1cc(C)on1)C(=O)NCC(=O)N[C@@H](CC(C)C)C(=O)[C@@]1(C)CO1 [Compound 54, N-5-methylisoxazolyl-3-formyl-S-methyl-L-cysteinyl-glycyl-L-leucyl-methyloxirane] | 58.4 to 59.8 °C | – |
| CSC[C@@H](NC(=O)c1cnc(C)s1)C(=O)NCC(=O)N[C@@H](CC(C)C)C(=O)[C@@]1(C)CO1 [Compound 56, N-2-methylthiazolyl-5-formyl-S-methyl-L-cysteinyl-glycyl-L-leucyl-methyloxirane] | – | IC50 (RPMI8226): > 100 nM |
| COC[C@H](NC(=O)c1cnc(C)s1)C(=O)N[C@@H](COC)C(=O)N[C@@H](Cc1ccccc1)C(=O)[C@@]1(C)CO1 [Oprozomib, reference compound] | – | IC50 at 24 h [2, 4]: 598 nM; IC50 at 24 h [2, 5]: 807 nM; IC50 [3, 6]: 53 nM; IC50 [3, 7]: 70.9 nM |

Now from value to molecule, other results behind:

| melting point | SMILES | also measured |
| --- | --- | --- |
| 70.2 to 72.7 °C | COC[C@H](NC(=O)c1cc(C)on1)C(=O)N[C@H](CSC)C(=O)N[C@@H](CC(C)C)C(=O)[C@@]1(C)CO1 [Compound 31, N-5-methylisoxazolyl-3-formyl-O-methyl-L-seryl-S-methyl-L-cysteinyl-L-leucyl-methyloxirane] | – |
| 50 to 51 °C | COC[C@H](NC(=O)c1cnccn1)C(=O)N[C@H](CSC)C(=O)N[C@@H](CC(C)C)C(=O)[C@@]1(C)CO1 [Compound 32, N-pyrazinyl-2-formyl-O-methyl-L-seryl-S-methyl-L-cysteinyl-L-leucyl-methyloxirane] | IC50 (U266B1): 13700 nM |
| 50.7 to 52.3 °C | COC[C@H](NC(=O)c1cc(Cl)ccc1Cl)C(=O)N[C@H](CSC)C(=O)N[C@@H](Cc1ccccc1)C(=O)[C@@]1(C)CO1 [Compound 33, N-2,5-dichlorophenyl-2-formyl-O-methyl-L-seryl-S-methyl-L-cysteinyl-L-phenylalanyl-methyloxirane] | – |
| 46.1 to 47.6 °C | COC[C@H](NC(=O)c1cnccn1)C(=O)N[C@H](CSC)C(=O)N[C@@H](Cc1ccccc1)C(=O)[C@@]1(C)CO1 [Compound 35, N-pyrazinyl-2-formyl-O-methyl-L-seryl-S-methyl-L-cysteinyl-L-phenylalanyl-methyloxirane] | – |
| 49.7 to 51.2 °C | COC[C@H](NC(=O)[C@@H](CSC)NC(=O)c1cnccn1)C(=O)N[C@@H](Cc1ccccc1)C(=O)[C@@]1(C)CO1 [Compound 41, N-pyrazinyl-2-formyl-S-methyl-L-cysteinyl-O-methyl-L-seryl-L-phenylalanyl-methyloxirane] | IC50 (U266B1): 160 nM; IC50 (RPMI8226): 55.3 nM |
| 163.1 to 164.5 °C | CSC[C@@H](NC(=O)c1cc(Cl)ccc1Cl)C(=O)N[C@H](CSC)C(=O)N[C@@H](CC(C)C)C(=O)[C@@]1(C)CO1 [Compound 42, N-2,5-dichlorophenyl-2-formyl-S-methyl-L-cysteinyl-S-methyl-L-cysteinyl-L-leucyl-methyloxirane] | – |
| 150 to 151 °C | CSC[C@@H](NC(=O)c1cnc(C)s1)C(=O)N[C@H](CSC)C(=O)N[C@@H](CC(C)C)C(=O)[C@@]1(C)CO1 [Compound 45, N-2-methylthiazolyl-5-formyl-S-methyl-L-cysteinyl-S-methyl-L-cysteinyl-L-leucyl-methyloxirane] | – |
| 150 to 151 °C | CSC[C@@H](NC(=O)c1cc(Cl)ccc1Cl)C(=O)N[C@H](CSC)C(=O)N[C@@H](Cc1ccccc1)C(=O)[C@@]1(C)CO1 [Compound 46, N-2,5-dichlorophenyl-2-formyl-S-methyl-L-cysteinyl-S-methyl-L-cysteinyl-L-phenylalanyl-methyloxirane] | – |
| 149 to 150 °C | CSC[C@@H](NC(=O)c1cc(C)on1)C(=O)N[C@H](CSC)C(=O)N[C@@H](Cc1ccccc1)C(=O)[C@@]1(C)CO1 [Compound 47, N-5-methylisoxazolyl-3-formyl-S-methyl-L-cysteinyl-S-methyl-L-cysteinyl-L-phenylalanyl-methyloxirane] | – |
| 47.7 to 49.1 °C | COC[C@H](NC(=O)c1cc(C)on1)C(=O)NCC(=O)N[C@@H](CC(C)C)C(=O)[C@@]1(C)CO1 [Compound 50, N-5-methylisoxazolyl-3-formyl-O-methyl-L-seryl-glycyl-L-leucyl-methyloxirane] | IC50 at 24 h [2, 4]: > 2000 nM; IC50 at 24 h [2, 5]: > 2000 nM; IC50 [3, 6]: 10 nM; IC50 [3, 7]: 11 nM |
